The source of these data is patent publication US11932636B2, “RAD51 inhibitors” (Cyteir Therapeutics, Inc., priority 2019, dated 2024).

This assay relates to Daudi cells (AID positive). Description: Compound primary screening: cell death in AID positive Daudi cells (Cell-Titer Glo, Day 7). The following applies: Homo sapiens, 168 h; Daudi cells, AID positive; cell death on Day 7, Cell-Titer Glo; read-out: Cellular activity in AID + (Daudi). In kind it is cell-based. As to the method:
Example 149. Compound Primary Screening
AID expressing cells are dependent upon RAD51 for survival; inhibiting RAD51 in AID positive cells results in a cytotoxic effect.
A 96 well u-bottom plate was prepared by writing the experiment number, plate number, date and initials in the top right corner of the plate lid. With a sterile 300 ml reservoir, and 25 ml serological pipette, evaporation buffer media was pipetted into reservoir in 25 ml increments. Using the liquid handler, 150 ul of evaporation buffer media was pipetted from reservoir into rows A and H, and Columns 1 and 12 of the 96 well u-bottom plate. Cell cultures were counted to obtain the density of cells per ml, and the culture viability. The cell density information was used to obtain 1,000,000 cells from culture using a 5 mL serological pipette into an epi tube. The cell density information from the culture was used to calculate the number of cells and volume of media needed for the assay to seed 1250 cells in 130 ul of media per available culture well in the 96 well u-bottom plate. Rows B through F were used for cells (50 wells in total), with row G left for an empty media control. The calculation was overestimated by 10 mL to account for the dead volume in the 300 ml reservoir. Once the media volume was calculated, the appropriate volume of media was pipetted in 25 mL increments into the 250 mL bottle using a 25 mL serological pipette. The 250 ml bottle was capped tightly, and placed into a 37° C. water bath for 2 minutes. While the culture media was warming, 10 mL of fresh media was pipetted from the 500 mL culture media bottle into a sterile 25 mL reservoir. Using the Eppendorf multichannel pipette, 130 ul of media was pipetted from the 25 mL reservoir into row G of the 96 well u-bottom plate. Once the 250 mL bottle of media was warmed, the volume of culture needed was pipetted into the bottle, and mixed gently with a 25 mL serological pipette as to not create bubbles, and then the contents of the bottle were pipetted into a new 300 mL reservoir. Using the liquid handler, 130 ul of culture was pipetted from the 300 mL reservoir into rows B through F of the 96 well u-bottom plate. Once the culture was added, the plate was placed into a 37° C. incubator until the compound master plate was prepared for use.
Two 96 well u-bottom plates were prepared by writing the master plate name in the upper right corner of the plate lid. Labeling one DMSO master and the other Media Master. The compounds of interest were obtained from the laboratory freezer, and placed into a 25 well storage box with a lid, and set the box aside. The compounds were vortexed after thawing but before use. Using an automatic multichannel pipette, 20 ul of 100% DMSO was pipetted into wells B3-B11 through G3-G11 of the DMSO master plate. For each compound on the master plate, 50 ul of the compound were pipetted in the appropriate well of row 2 (reference plate map to determine appropriate well). A serial dilution was prepared beginning by aspirating 20 ul from row 2 and mixing with row 3, repeating until row 11 was reached. Using the liquid handler, 194 ul of Daudi media was dispensed into wells B2-B11 through G2-G11 of the Media master plate. Using the liquid handler, 6 ul from the DMSO master plate was aspirated and dispensed into the media master plate, mixing 100 ul twice.
Compounds from master plate were then added to the culture plate. The culture plates were removed from the incubator, and set inside the biosafety cabinet. Using a liquid handler, 20 ul from wells B2 to B11 through G2 to G11 of master plate were aspirated, and dispensed into wells B2 to B11 through G2 to G11 of culture plate. This set was continued with each culture plate. Once the culture plates acquired their 20 ul of compound dilutions, they were placed back into the incubator, until their reads on Day 7 of experiment.
Cell death was measured on Day 7 of the experiment using Cell-Titer Glo and a Promega Plate reader.
`CC(C)OC(=O)N[C@H]1CC[C@H](c2ncc(-c3ccc(-c4ccnc(C(F)(F)F)c4)cc3S(=O)(=O)NC(C)(C)C)s2)CC1` [Compound 22, isopropyl (trans-4-(5-(2-(N-(tert-butyl)sulfamoyl)-4-(2-(trifluoromethyl)pyridin-4-yl)phenyl)thiazol-2-yl)cyclohexyl)carbamate]: the EC50 was in the range of 1000 to 10000 nM.
With `CC(C)OC(=O)N[C@H]1CC[C@H](c2ncc(-c3ccc(O)cc3S(=O)(=O)NC(C)(C)C)s2)CC1` [Compound 23, isopropyl (trans-4-(5-(2-(N-(tert-butyl)sulfamoyl)-4-hydroxyphenyl)thiazol-2-yl)cyclohexyl)carbamate] the figure was 100 to 1000 nM; with `CC(C)OC(=O)N[C@H]1CC[C@H](c2ncc(-c3ccc(O)cc3S(N)(=O)=O)s2)CC1` [Compound 24, isopropyl (trans-4-(5-(4-hydroxy-2-sulfamoylphenyl)thiazol-2-yl)cyclohexyl)carbamate], 100 to 1000 nM; with `CC(C)OC(=O)N[C@H]1CC[C@H](c2ncc(-c3ccc(OCCNC(=O)OC(C)(C)C)cc3S(=O)(=O)NC(C)(C)C)s2)CC1` [Compound 25, isopropyl N-[trans-4-[5-[4-[2-(tert-butoxycarbonylamino)ethoxy]-2-(tert-butylsulfamoyl)phenyl]thiazol-2-yl]cyclohexyl]carbamate], 1000 to 10000 nM.
With `CC(C)OC(=O)N[C@H]1CC[C@H](c2ncc(-c3ccc(OCCN)cc3S(=O)(=O)NC(C)(C)C)s2)CC1` [Compound 26, isopropyl (trans-4-(5-(4-(2-aminoethoxy)-2-(N-(tert-butyl)sulfamoyl)phenyl)thiazol-2-yl)cyclohexyl)carbamate] the figure was 1000 to 10000 nM; with `CC(C)OC(=O)N[C@H]1CC[C@H](c2ncc(-c3ccc(OC(C)C)cc3S(=O)(=O)NC(C)(C)C)s2)CC1` [Compound 27, isopropyl (trans-4-(5-(2-(N-(tert-butyl)sulfamoyl)-4-isopropoxyphenyl)thiazol-2-yl)cyclohexyl)carbamate], 1000 to 10000 nM.
For `COc1ccc(-c2cnc([C@H]3CC[C@H](NC(=O)OC(C)C)CC3)s2)c(S(=O)(=O)NC(C)(C)C)c1` [Compound 28, isopropyl (trans-4-(5-(2-(N-(tert-butyl)sulfamoyl)-4-methoxyphenyl)thiazol-2-yl)cyclohexyl)carbamate], the EC50 was over 10000 nM.
With `CC(C)OC(=O)N[C@H]1CC[C@H](c2ncc(-c3ccc(OCCN(C)C(=O)OC(C)(C)C)cc3S(=O)(=O)NC(C)(C)C)s2)CC1` [Compound 29, tert-butyl (2-(3-(N-(tert-butyl)sulfamoyl)-4-(2-(trans-4-((isopropoxycarbonyl)amino)cyclohexyl)thiazol-5-yl)phenoxy)ethyl)(methyl)carbamate] the figure was 1000 to 10000 nM; with `CC(C)OC(=O)N[C@H]1CC[C@H](c2ncc(-c3ccc(OCCN(C)C)cc3S(=O)(=O)NC(C)(C)C)s2)CC1` [Compound 30, isopropyl (trans-4-(5-(2-(N-(tert-butyl)sulfamoyl)-4-(2-(dimethylamino)ethoxy)phenyl)thiazol-2-yl)cyclohexyl)carbamate], over 10000 nM.
For `COCCOc1ccc(-c2cnc([C@H]3CC[C@H](NC(=O)OC(C)C)CC3)s2)c(S(=O)(=O)NC(C)(C)C)c1` [Compound 31, isopropyl (trans-4-(5-(2-(N-(tert-butyl)sulfamoyl)-4-(2-methoxyethoxy)phenyl)thiazol-2-yl)cyclohexyl)carbamate], the EC50 lay within 1000 to 10000 nM.
With `CNCCOc1ccc(-c2cnc([C@H]3CC[C@H](NC(=O)OC(C)C)CC3)s2)c(S(=O)(=O)NC(C)(C)C)c1` [Compound 32, isopropyl (trans-4-(5-(2-(N-(tert-butyl)sulfamoyl)-4-(2-(methylamino)ethoxy)phenyl)thiazol-2-yl)cyclohexyl)carbamate] the figure was over 10000 nM; with `CC(C)COCc1ccc(-c2cnc([C@H]3CC[C@H](NC(=O)OC(C)C)CC3)s2)c(S(=O)(=O)NC(C)(C)C)c1` [Compound 33, isopropyl (trans-4-(5-(2-(N-(tert-butyl)sulfamoyl)-4-(isobutoxymethyl)phenyl)thiazol-2-yl)cyclohexyl)carbamate], 100 to 1000 nM; with `CC(C)COCc1ccc(-c2cnc([C@H]3CC[C@H](NC(=O)OC4COC4)CC3)s2)c(S(=O)(=O)NC(C)(C)C)c1` [Compound 34, oxetan-3-yl trans-N-[4-[5-[2-(tert-butylsulfamoyl)-4-(isobutoxymethyl)phenyl]thiazol-2-yl]cyclohexyl]carbamate], 1000 to 10000 nM.
With `CCNS(=O)(=O)c1cc(C#N)ccc1-c1cnc([C@H]2CC[C@H](NC(=O)OC(C)C)CC2)s1` [Compound 36, isopropyl trans-N-[4-[5-[4-cyano-2-(ethylsulfamoyl)phenyl]thiazol-2-yl]cyclohexyl]carbamate] the figure was 1000 to 10000 nM; with `CC(C)OC(=O)N[C@H]1CC[C@H](c2ncc(-c3ccc(Nc4ncc[nH]4)cc3S(=O)(=O)NC(C)(C)C)s2)CC1` [Compound 38, isopropyl trans-N-[4-[5-[2-(tert-butylsulfamoyl)-4-(1H-imidazol-2-ylamino)phenyl]thiazol-2-yl]cyclohexyl]carbamate], under 100 nM; with `CC(C)NC(=O)Cc1ccc(-c2cnc([C@H]3CC[C@H](NC(=O)OC(C)C)CC3)s2)c(S(=O)(=O)NC(C)(C)C)c1` [Compound 40, isopropyl trans-N-[4-[5-[2-(tert-butylsulfamoyl)-4-[2-(isopropylamino)-2-oxo-ethyl]phenyl]thiazol-2-yl]cyclohexyl]carbamate], under 100 nM.
With `CC(C)NC(=O)Cc1ccc(-c2cnc([C@H]3CC[C@H](NC(=O)OC4COC4)CC3)s2)c(S(=O)(=O)NC(C)(C)C)c1` [Compound 41, oxetan-3-yl (trans-4-(5-(2-(N-(tert-butyl)sulfamoyl)-4-(2-(isopropylamino)-2-oxoethyl)phenyl)thiazol-2-yl)cyclohexyl)carbamate] the figure was 100 to 1000 nM.
For `CC(C)OC(=O)N[C@H]1CC[C@H](c2ncc(-c3ccc(Nc4ncco4)cc3S(=O)(=O)NC(C)(C)C)s2)CC1` [Compound 42, isopropyl (trans-4-(5-(2-(N-(tert-butyl)sulfamoyl)-4-(oxazol-2-ylamino)phenyl)thiazol-2-yl)cyclohexyl)carbamate], the EC50 was under 100 nM.
With `CC(C)OC(=O)N[C@H]1CC[C@H](c2ncc(-c3ccccc3S(N)(=O)=O)s2)CC1` [Compound 44, isopropyl trans-N-[4-[5-(2-sulfamoylphenyl)thiazol-2-yl]cyclohexyl]carbamate] the figure was 1000 to 10000 nM; with `CCNS(=O)(=O)c1ccccc1-c1cnc([C@H]2CC[C@H](NC(=O)OC(C)C)CC2)s1` [Compound 45, isopropyl (trans-4-(5-(2-(N-ethylsulfamoyl)phenyl)thiazol-2-yl)cyclohexyl)carbamate], 1000 to 10000 nM.
With `CC(C)OC(=O)N[C@H]1CC[C@H](c2ncc(-c3ccccc3S(=O)(=O)NC(C)(C)C)s2)CC1` [Compound 46, isopropyl (trans-4-(5-(2-(N-(tert-butyl)sulfamoyl)phenyl)thiazol-2-yl)cyclohexyl)carbamate] the figure was 1000 to 10000 nM; with `CCNS(=O)(=O)c1cc(C(=O)O)ccc1-c1cnc([C@H]2CC[C@H](NC(=O)OC(C)C)CC2)s1` [Compound 48, trans-3-(ethylsulfamoyl)-4-[2-[4-(isopropyloxycarbonyl-amino)cyclohexyl]thiazol-5-yl]benzoic acid], 1000 to 10000 nM; with `CCNS(=O)(=O)c1cc(C(N)=O)ccc1-c1cnc([C@H]2CC[C@H](NC(=O)OC(C)C)CC2)s1` [Compound 49, isopropyl trans-N-[4-[5-[4-carbamoyl-2-(ethylsulfamoyl)phenyl]thiazol-2-yl]cyclohexyl]carbamate], 100 to 1000 nM.
